Measurements from patent US20250345343A1, “PHARMACEUTICAL COMPOSITION FOR PREVENTION OR TREATMENT OF SOLID CANCER COMPRISING EPIDITHIODIOXOPIPERAZINE DERIVATIVE OR PHARMACEUTICALLY ACCEPTABLE SALT THEREOF” (priority 2019, published 2025).

How the values were obtained:
[1] = Cell proliferation assay (WST-1): cytotoxicity and proliferation of breast cancer cells; format: cell-based; conditions: human; up to a concentration of about 200 nM; breast cancer cells MDA-MB-231 and Hs-578T
Experimental: (§1) The cells (2×10^3 cells/well) were cultured in 96-well plates for 24 hours, and then treated with the compound of the present invention for 2 hours. The cells were placed in fresh complete media and cultured for the labelled time. For cell proliferation, the cells were treated with WST-1 reagent for 1 hour, and the absorbance of the formazan product at 450 nm was measured using a UV/VIS ELISA reader.
(§2) Among the cancer cells prepared according to Experimental Example 1, breast cancer cell lines MDA-MB-231 and Hs-578T were treated with DMSO as a control vehicle and a natural epidithiodioxopiperazine derivative gliotoxin, the cytotoxicity and proliferation rate at each concentration of the treated compound were calculated according to Experimental Example 2, and the results are illustrated in FIG. 1.

[2] = tested on: breast cancer cell lines MDA-MB-231 and Hs-578T; test: as above; format: cell-based; conditions: breast cancer cells
Experimental: as §1, §2

[3] = tested on: breast cancer cell lines MDA-MB-231 and Hs-578T; test: Migration assay (trans-well); format: cell-based; conditions: 24 hours
Experimental: The cells (2×10^5 cells/well) were cultured in 6-well plates for 24 hours, and then treated with the compounds of the present invention for 2 hours. After treatment, the cells were serum-starved by further culturing in fresh culture medium containing 0.5% FBS for 12 hours. The serum-starved cells (5×10^4 cells/well) were transferred to the upper chamber (8 μm pore size) of a 24-well trans-well culture plate (Costar) with the bottom layer pre-coated with 0.1% gelatin B (Sigma Aldrich). The lower chamber was filled with culture medium containing 20% FBS. Twenty-four hours after plating, non-migrated cells in the upper chamber were removed. After the cells which had not migrated from the upper chamber were removed, the upper chamber was fixed with methanol and stained with 0.6% hematoxylin (DAKO). The stained cells were photographed and counted. The number of migratory cells was determined by averaging the values from three wells.
Among the cancer cells prepared according to Experimental Example 1, breast cancer cell lines MDA-MB-231 and Hs-578T were treated with DMSO as a control vehicle and natural epidithiodioxopiperazine derivative gliotoxin, cell migration to the FBS-containing medium was observed and the number of migrated cells was counted according to Experimental Example 5, and the results are illustrated in FIGS. 3 and 4.

[4] = tested on: MDA-MB-231, Hs-578T, A549, H460, MKN28, MKN74, SK-MEL-5, SK-MEL-28, RKO, HCT116, PC3 and Panc-1 cancer cells; test: Colony formation assay; format: cell-based; conditions: for colony formation inhibition: low concentrations (50 nM and 200 nM), 10 days
Experimental: The cells (2×10^3 cells/well) were cultured in 6-well plates for 24 hours, and then treated with the compounds of the present invention for 2 hours. The cells were placed in fresh complete media and additionally cultured for 10 days. The cells were washed with PBS and stained with crystal violet. Blue-stained colonies were manually counted.
Among the cancer cells prepared according to Experimental Example 1, breast cancer cell lines MDA-MB-231 and Hs-578T; lung cancer cell lines A549 and H460; stomach cancer cell lines MKN28 and MKN74; skin cancer cell lines SK-MEL-5 and SK-MEL-28; colon cancer cell lines RKO and HCT116; a prostate cancer cell line PC3; and a pancreatic cancer cell line Panc-1 were treated with DMSO as a control vehicle and synthetic epidithiodioxopiperazine derivatives A2, A5, and A10.

[5] = tested on: various cancer cell lines and three normal cells (MCF-10A, IMR90, and CCD-841); test: Cell viability assay (Cell Titer-Glo), cancer cells versus normal cells; format: cell-based; conditions: 50 nM and 200 nM
Excerpt: FIG. 5 is diagrams illustrating the cytotoxic effect of a synthetic epidithiodioxopiperazine derivative on various cancer cells and normal cells. (A) to (J) respectively illustrate the cell viability quantified by the Cell Titer-Glo assay system of breast cancer cells, lung cancer cells, stomach cancer cells, skin cancer cells, colon cancer cells, prostate cancer cells, pancreatic cancer cells, normal breast cells, normal fibroblasts, and normal epithelial cells after treating with the labelled ETP compound for 24 hours (n=3). And IC50 values are determined using a linear regression program (GraphPad Prism) and illustrated in (K).
In order to determine the IC50 value for examining cytotoxicity, the cells (2×10^5 cells/well) were aliquoted into 96-well plates and treated with the labelled compounds at various concentrations for 24 hours. The cell viability was measured using the Cell Titer-Glo Luminescence Assay Reagent Kit (Promega, G7570), and the luminescence was read using an Envision plate reader. The percentage of cell growth with respect to that in the vehicle control group (0.1% DMSO-treated cells) was calculated.

[6] = tested on: breast cancer cell lines MDA-MB-231 and Hs-578T; test: Cell cycle assay (PI staining, flow cytometry); format: cell-based; conditions: treated 2 hours, cultured 24 hours
Experimental: The cells (2×10^5 cells/well) were cultured in 6-well plates for 24 hours, and then treated with the compounds of the present invention for 2 hours. The cells were placed in fresh complete media and further cultured for 24 hours. The cells were fixed overnight in 70% ethanol at 4° C., washed with cold PBS, and re-suspended in PBS solution containing RNase A (10 μg/mL) at 37° C. for 30 minutes. The suspended cells were stained with propidium iodide (PI, 50 μg/mL, Invitrogen) for 5 minutes, and flow cytometry (FACS Calibur, BD) was performed. The cell population was analyzed using ModiFit LT software.
Among the cancer cells prepared according to Experimental Example 1, breast cancer cell lines MDA-MB-231 and Hs-578T were not treated or were treated with a natural epidithiodioxopiperazine derivative gliotoxin, the cell cycle was analyzed and the cell percentage in G1 phase was calculated according to Experimental Example 4, and the results are illustrated in FIG. 2.

[7] = tested on: patient-derived lung adenocarcinoma tumor; test: Patient-derived tumor xenograft experiment; format: in vivo, mice
Experimental: Animal experiments were approved by the Institutional Animal Care and Use Committee (IACUC) of Seoul National University College of Medicine and complied with ARRIVE (Animal Research: Reporting of In Vivo Experiments) guidelines. Patient-derived lung tumors were subcutaneously implanted into the backs of 4-week-old and 17-week-old NSG (NOD-scid-IL2Rgnull) and humanized NSG (HuNSG) mice, respectively. The compound represented by Chemical Formula 7 (A5, 300 mg/kg) and/or pembrolizumab (humanized anti-PD-1 antibody, 5 mg/kg) dissolved in PBS were intraperitoneally injected to the mice every 3 days for 3 weeks and every 5 days for 3 weeks, respectively. The tumors were allowed to grow for 28 days, excised, and quantified. The tumor volume was measured every 3 days using Vernier calipers and calculated using the following equation.
In the equation, a and b mean the superficial diameter of major axis and the superficial diameter of minor axis, respectively.
While the mouse models prepared by implanting a patient-derived lung adenocarcinoma tumor according to Experimental Example 10 were not treated, were treated only with a representative synthetic epidithiodioxopiperazine derivative A5, or were concurrently treated with A5 and pembrolizumab, a humanized antibody known to be used for cancer immunotherapy, the changes in volume of the tumor were periodically observed, and the results are illustrated in FIG. 15.

Row | Structure (SMILES) | migration of breast cancer cells induced to the serum-containing medium [3] | colony formation inhibitory effect ([4]; 50 nM) | colony formation inhibitory effect ([4]; 200 nM) | colony formation inhibition [4] | non-specific cytotoxicity [5] | other results
1 | CN1C(=O)C2(Cc3cn(C45CC67SSC(CO)(C(=O)N6C4Nc4ccccc45)N(C)C7=O)c4ccccc34)SSC1(CO)C(=O)N2C (stereo not drawn) [chetomin] | significantly decreased | – | – | – | – | viability at 2 h [1]: ≥ 80%; proliferation rate compared to DMSO-treated cells ([2]; chetomin 50 nM): significantly decreased
2 | CN1C(=O)C2SSC1C(=O)N2C [A2, 5,7-dimethyl-2,3-dithia-5,7-diazabicyclo[2.2.2] octane-6,8-dione] | – | equal to or somewhat superior to that in the control vehicle-treated group | remarkably so as to be observed with the naked eye in all tested cells | efficiently inhibit colony formation | do not exhibit non-specific cytotoxicity | –
3 | O=C1N2CCCC23SSC12CCCN2C3=O [A10, 5a, 10a-dithio-octahydrodipyrrolo[1,2-a:1′,2′-d]pyrazine-5,10-dione] | – | colony formation was inhibited in most cancer cells | – | efficiently inhibit colony formation | do not exhibit non-specific cytotoxicity | –
4 | CN1C(=O)C23CC4=CC=CC(O)C4N2C(=O)C1(CO)SS3 (stereo not drawn) [gliotoxin] | significantly decreased | – | – | – | – | increase of cell percentage in G1 phase compared to untreated group [6]: ≥ 10%; viability [1]: ≥ 80%; proliferation rate compared to DMSO-treated cells ([2]; gliotoxin 100 nM): significantly decreased
5 | C=CCN1C(=O)C2SSC1C(=O)N2CC=C [A5, 5,7-diallyl-2,3-dithia-5,7-diazabicyclo[2.2.2] octane-6,8-dione] | – | equal to or somewhat superior to that in the control vehicle-treated group | remarkably so as to be observed with the naked eye in all tested cells | efficiently inhibit colony formation | do not exhibit non-specific cytotoxicity | tumor volume over time ([7]; NSG mice, A5 300 mg/kg intraperitoneally every 3 days for 3 weeks): increase in tumor volume is suppressed; tumor size compared to untreated control group ([7]; humanized NSG mice (HuNSG), A5 300 mg/kg intraperitoneally every 3 days for 3 weeks): an effect of decreasing the tumor size is exerted; inhibiting tumor growth and decreasing tumor size, A5 alone versus pembrolizumab or A5 plus pembrolizumab ([7]; humanized NSG mice (HuNSG), pembrolizumab 5 mg/kg every 5 days for 3 weeks): superior to the pembrolizumab-treated group or the experimental group concurrently treated with A5 and pembrolizumab
